Laboratory results reported in PubChem BioAssay (NCI).
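Briefly, cells in 96-well plates were exposed to five compound concentrations for 48 h, and endpoints were estimated by linear interpolation. Abbreviation: GI50, concentration required for 50% inhibition of growth. TGI: total growth inhibition.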

How the values were obtained:
Test in all cases: NCI tumour cell line growth inhibition, 48 h
[1] = test system: HCT-116 colon
[2] = test system: NCI-H460 lung
[3] = test system: T-47D breast
[4] = test system: NCI/ADR-RES ovarian
[5] = test system: SW-620 colon
[6] = test system: SR leukemia
[7] = test system: SF-539 CNS
[8] = test system: HOP-62 NSCLC
[9] = test system: SK-MEL-2 melanoma
[10] = test system: M19-MEL melanoma
[11] = test system: SNB-78 CNS

Row | SMILES | TGI [1] | TGI [2] | TGI [3] | TGI [4] | TGI [5] | TGI [6] | TGI [7] | TGI [8] | TGI [9] | TGI [10] | TGI [11] | GI50 [9]
1 | Cc1nc2ccccc2cc1C[N+]12CN3CN(CN(C3)C1)C2 | 33.2 µM | 45.1 µM | > 100 µM | 56.3 µM | > 100 µM | > 100 µM | 64.5 µM | 69.9 µM | 39.8 µM |  |  | 
2 | CCOC(=O)CN(Cc1ccccc1)Cc1c(C(=O)c2ccccc2)c2ccccc2n1C(=O)c1ccccc1 | > 100 µM | > 100 µM |  |  | > 100 µM | > 100 µM | > 100 µM | > 100 µM | > 100 µM | > 100 µM | > 100 µM | 
3 | COc1cc([C@@H]2c3cc4c(cc3[C@@H](Nc3ccc(NC(=O)c5cc(NC(=O)c6cc([N+](=O)[O-])cn6C)cn5C)cc3)[C@H]3COC(=O)[C@H]23)OCO4)cc(OC)c1O | 33.3 µM | 13.2 µM | > 62.8 µM | > 100 µM | > 62.5 µM | > 100 µM | > 100 µM | 14.4 µM | > 100 µM |  |  | 
4 | CC1CN=C(N(C)C(=O)Nc2ccc(Cl)c(Cl)c2)S1 (stereo unspecified) | > 100 µM | > 100 µM | > 100 µM | 73.2 µM | > 100 µM | > 100 µM | 52.6 µM | > 100 µM | 44.2 µM |  |  | 
5 | O=c1cc2cc(O)[nH]c(=O)c2c(O)[nH]1 | > 100 µM | > 100 µM |  |  | > 100 µM | > 100 µM | > 100 µM | > 100 µM |  | > 100 µM | > 100 µM | 
6 | COc1cc(C2c3cc4c(cc3OC(N3CCOCC3)C2C)OCO4)cc(OC)c1OC(C)=O (stereo unspecified) | 60.8 µM | > 100 µM | > 81.8 µM | 30.8 µM | > 100 µM | > 72 µM | 40.2 µM | > 95.5 µM | 41.1 µM |  |  | 
7 | CC(C)C(/C=C/c1ccccc1)=N\NC(=S)NN | > 100 µM | > 100 µM | > 100 µM | > 100 µM | > 100 µM | > 100 µM | > 100 µM | > 100 µM | > 100 µM |  |  | 
8 | CCOC(=O)C1=CN(C(=O)c2ccccc2)CCC1Cc1ccccc1 (stereo unspecified) | 84.4 µM | 44.9 µM | 72.8 µM | 93 µM | > 100 µM | 37.5 µM | 63.6 µM | > 100 µM | 35.9 µM |  |  | 
9 | CCOC(=O)/C=C(/C(=O)OCC)n1ccc(=O)[nH]c1=O | 7.14 µM | 30.5 µM | 16.6 µM | 40.4 µM | 3.99 µM | 16.8 µM | 34.8 µM | 35.7 µM | 30.4 µM |  |  | 
10 | Cc1nn(C(=O)c2ccc(Cl)cc2)c2c1C(c1ccco1)SC(N)=N2 (stereo unspecified) | > 10 µM | > 10 µM | > 10 µM | > 10 µM | > 10 µM | > 10 µM | > 10 µM | > 10 µM | > 10 µM |  |  | 
11 | C=C1[C@H](OCC(C)C)[C@@H](OC(=O)C(C)CC)[C@@H](O)C(C)(C)/C=C/[C@H](C)C(=O)[C@@]2(O)C[C@H](C)[C@H](O)[C@@H]2[C@H]1OC(=O)C(C)CC (stereo partly specified) | > 20 µM | 8.18 µM | > 20 µM | > 20 µM | > 20 µM | > 10.5 µM | > 14.9 µM | > 10.5 µM | > 15 µM |  |  | 
12 | COC1=CCC2=C(CCN(C(=O)C3CCC3)C2Cc2ccc(OC)c(O)c2)C1 (stereo unspecified) | 48.6 µM | 31.1 µM | 62.4 µM | 41.4 µM | > 100 µM | > 100 µM | > 100 µM | > 100 µM | > 100 µM |  |  | 
13 | CC(=O)OC1C(O)C(C)OC(OC(=O)C2CCC3C(C2)OC2(CC(OC(=O)/C=C/c4ccccc4)C(C)CO2)C32CO2)C1OC1OC(C)C(O)C(O)C1O (stereo unspecified) | 0.709 µM | 0.236 µM |  | 146 µM | 0.568 µM |  | 0.105 µM | 0.223 µM | 0.0389 µM | 0.0497 µM | 0.104 µM | 
14 | Cc1oc2c(C)c3oc(=O)cc(C)c3cc2c1CN | > 100 µM | > 100 µM |  |  | > 100 µM |  | > 100 µM | > 100 µM | > 100 µM | > 100 µM | > 100 µM | 
15 | COc1cc(C(CC(OC)OC)=C(C#N)C#N)cc(OC)c1OC | 44.1 µM | 23.4 µM |  |  | > 100 µM | > 100 µM | 37.1 µM |  | 49.4 µM | 33.4 µM | > 100 µM | 
16 | NC(CNc1ccc(O)cc1)C(=O)O (stereo unspecified) | > 100 µM | > 100 µM |  |  | > 100 µM | > 100 µM |  | > 100 µM | > 100 µM | 86.3 µM | > 100 µM | 
17 | CSc1nc(=O)c(C#N)c(-c2ccccc2)n1C1OC(COC(C)=O)C(OC(C)=O)C(OC(C)=O)C1OC(C)=O (stereo unspecified) | > 100 µM | > 100 µM | > 100 µM | > 100 µM | > 100 µM | > 100 µM | > 100 µM | > 100 µM | > 100 µM |  |  | 
18 | C/C(=C/c1c(C)[nH]c(=O)[nH]c1=O)C(=O)O | > 1380 µM | > 1380 µM |  | > 1380 µM | > 1380 µM |  | > 1380 µM | > 1380 µM | > 1380 µM | > 1380 µM | > 1380 µM | > 1380 µM
19 | CC(=O)C(C(=O)C(C)(C)C)C(=O)C(C)(C)C | > 100 µM | > 100 µM | > 100 µM | > 100 µM | > 100 µM | > 100 µM | > 100 µM | > 100 µM | > 100 µM |  |  | 
20 | COc1cccc(/C=N/n2c(Cc3ccc(Cl)cc3)n[nH]c2=O)c1 | > 100 µM | > 100 µM | > 68.2 µM | > 88.7 µM | > 100 µM | > 100 µM | 32.6 µM | 43.9 µM | 58.6 µM |  |  | 
21 | CC(C)(CN1CCCCC1)C(=O)/C=C/c1c(Cl)cccc1Cl | 2.02 µM | 3.86 µM | 1.44 µM | 5.09 µM | 2.29 µM | > 100 µM | 6.71 µM | 4.03 µM | 3.73 µM |  |  | 
